Source: US20260256792A1, “TREATMENT OF CHRONIC SPONTANEOUS URTICARIA BY ADMINISTERING (R)-2-[3-[4-AMINO-3-(2-FLUORO-4-PHENOXY-PHENYL)PYRAZOLO[3,4-D]PYRIMIDIN-1-YL]PIPERIDINE-1-CARBONYL]-4-METHYL-4-[4-(OXETAN-3-YL)PIPERAZIN-1-YL]PENT-2-ENENITRILE” (priority 2023, published 2026)

Tested on: angioedema in CSU patients
Assay: Phase 2 CSU study: angioedema activity score over 7 days (AAS7)
Type: in vivo, human
Set-up: AAS7, Median / AAS7 Change from baseline, Median: scale not given here
Text: The study comprises a 12 week, randomized, double-blind, placebo-controlled, multi-center, dose-ranging efficacy and safety phase, followed by a 40 week open label extension (OLE) phase (see FIG. 1). The study consists of three phases and an optional OLE phase. […] The weekly angioedema activity score (AAS7) was proposed as a tertiary endpoint. […] Patients were to complete the AAS using the e-diary. The e-diary was to be used once daily on the same time of each day recording of participant's answers to the angioedema activity score over 7 days (AAS7) questionnaire.

[1] = Patients with Prior Omalizumab Use, 400 mg TID, Week 1
[2] = Patients with Prior Omalizumab Use, 400 mg TID, Week 2
[3] = Patients with Prior Omalizumab Use, 400 mg TID, Week 3
[4] = Patients with Prior Omalizumab Use, 400 mg TID, Week 4
[5] = Patients with Prior Omalizumab Use, 400 mg TID, Week 5
[6] = Patients with Prior Omalizumab Use, 400 mg TID, Week 6
[7] = Patients with Prior Omalizumab Use, 400 mg TID, Week 7
[8] = Patients with Prior Omalizumab Use, 400 mg TID, Week 8
[9] = Week 8, 400 mg BID, Incomplete Responders with angioedema at baseline, double-blind period
[10] = Week 8, 400 mg QPM, Incomplete Responders with angioedema at baseline, double-blind period
[11] = Week 8, 400 mg TID, Incomplete Responders with angioedema at baseline, double-blind period
[12] = Week 9, 400 mg BID, Incomplete Responders with angioedema at baseline, double-blind period
[13] = Week 9, 400 mg QPM, Incomplete Responders with angioedema at baseline, double-blind period
[14] = Week 9, 400 mg TID, Incomplete Responders with angioedema at baseline, double-blind period
[15] = Week 10, 400 mg BID, Incomplete Responders with angioedema at baseline, double-blind period
[16] = Week 10, 400 mg QPM, Incomplete Responders with angioedema at baseline, double-blind period
[17] = Week 10, 400 mg TID, Incomplete Responders with angioedema at baseline, double-blind period
[18] = Week 11, 400 mg BID, Incomplete Responders with angioedema at baseline, double-blind period
[19] = Week 11, 400 mg QPM, Incomplete Responders with angioedema at baseline, double-blind period
[20] = Week 11, 400 mg TID, Incomplete Responders with angioedema at baseline, double-blind period
[21] = Week 12, 400 mg BID, Incomplete Responders with angioedema at baseline, double-blind period
[22] = Week 12, 400 mg QPM, Incomplete Responders with angioedema at baseline, double-blind period
[23] = Week 12, 400 mg TID, Incomplete Responders with angioedema at baseline, double-blind period

CC(C)(C=C(C#N)C(=O)N1CCC[C@@H](n2nc(-c3ccc(Oc4ccccc4)cc3F)c3c(N)ncnc32)C1)N1CCN(C2COC2)CC1 [rilzabrutinib, (R)-2-[3-[4-amino-3-(2-fluoro-4-phenoxy-phenyl)pyrazolo[3,4-d]pyrimidin-1-yl]piperidine-1-carbonyl]-4-methyl-4-[4-(oxetan-3-yl)piperazin-1-yl]pent-2-enenitrile]
AAS7 Change from baseline, Median (Patients with Prior Omalizumab Use, 400 mg QPM, Week 8): −50.00
AAS7, Mean (SD) [1]: 6.33 (7.77)
AAS7, Median [1]: 4.00
AAS7 Change from baseline, Median [1]: −25.83
AAS7 Percent change from baseline, Mean (SD) [1]: −79.91 (18.61) %
AAS7 Percent change from baseline, Median [1]: −76.47%
AAS7, Mean (SD) [2]: 4.00 (6.93)
AAS7, Median [2]: 0.00
AAS7 Change from baseline, Mean (SD) [2]: −27.28 (19.44)
AAS7 Change from baseline, Median [2]: −36.00
AAS7 Percent change from baseline, Mean (SD) [2]: −76.47 (40.75) %
AAS7 Percent change from baseline, Median [2]: −100.00%
AAS7, Mean (SD) [3]: 7.00 (7.00)
AAS7, Median [3]: 7.00
AAS7 Change from baseline, Mean (SD) [3]: −24.28 (18.46)
AAS7 Change from baseline, Median [3]: −33.83
AAS7 Percent change from baseline, Mean (SD) [3]: −66.83 (43.45) %
AAS7 Percent change from baseline, Median [3]: −82.86%
AAS7, Mean (SD) [4]: 7.11 (6.30)
AAS7, Median [4]: 9.33
AAS7 Change from baseline, Mean (SD) [4]: −24.17 (16.75)
AAS7 Change from baseline, Median [4]: −31.50
AAS7 Percent change from baseline, Mean (SD) [4]: −68.85 (36.02) %
AAS7 Percent change from baseline, Median [4]: −77.14%
AAS7, Median [5]: 19.83
AAS7 Change from baseline, Mean (SD) [5]: −18.00 (19.67)
AAS7 Change from baseline, Median [5]: −21.00
AAS7 Percent change from baseline, Mean (SD) [5]: −44.59 (59.12) %
AAS7 Percent change from baseline, Median [5]: −51.43%
AAS7, Mean (SD) [6]: 7.00 (8.19)
AAS7, Median [6]: 5.00
AAS7 Change from baseline, Mean (SD) [6]: −24.28 (20.16)
AAS7 Change from baseline, Median [6]: −35.83
AAS7 Percent change from baseline, Mean (SD) [6]: −64.55 (51.17) %
AAS7 Percent change from baseline, Median [6]: −87.76%
AAS7, Mean (SD) [7]: 9.72 (16.84)
AAS7, Median [7]: 0.00
AAS7 Change from baseline, Mean (SD) [7]: −21.56 (12.79)
AAS7 Change from baseline, Median [7]: −17.00
AAS7 Percent change from baseline, Mean (SD) [7]: −76.19 (41.24) %
AAS7 Percent change from baseline, Median [7]: −100.00%
AAS7, Mean (SD) [8]: 4.67 (7.23)
AAS7, Median [8]: 1.00
AAS7 Change from baseline, Mean (SD) [8]: −26.61 (19.68)
AAS7 Change from baseline, Median [8]: −36.00
AAS7 Percent change from baseline, Mean (SD) [9]: −100.00 (0.00)
AAS7 Percent change from baseline, Median [9]: −100.00
AAS7 Percent change from baseline, Mean (SD) [10]: −73.53 (NC)
AAS7 Percent change from baseline, Median [10]: −73.53
AAS7 Percent change from baseline, Mean (SD) [11]: −73.69 (43.46)
AAS7 Percent change from baseline, Median [11]: −97.55
AAS7, Mean (SD) [12]: 0.00 (0.00)
AAS7, Median [12]: 0.00
AAS7 Change from baseline, Mean (SD) [12]: −39.50 (3.54)
AAS7 Change from baseline, Median [12]: −39.50
AAS7 Percent change from baseline, Mean (SD) [12]: −100.00 (0.00)
AAS7 Percent change from baseline, Median [12]: −100.00
AAS7, Mean (SD) [13]: 10.00 (NC)
AAS7 Change from baseline, Mean (SD) [13]: −58.00 (NC)
AAS7 Change from baseline, Median [13]: −58.00
AAS7 Percent change from baseline, Mean (SD) [13]: −85.29 (NC)
AAS7 Percent change from baseline, Median [13]: −85.29
AAS7, Mean (SD) [14]: 4.39 (6.62)
AAS7, Median [14]: 1.17
AAS7 Change from baseline, Mean (SD) [14]: −26.89 (19.04)
AAS7 Change from baseline, Median [14]: −36.00
AAS7 Percent change from baseline, Mean (SD) [14]: −75.52 (39.95)
AAS7 Percent change from baseline, Median [14]: −97.14
AAS7, Mean (SD) [15]: 0.00 (0.00)
AAS7, Median [15]: 0.00
AAS7 Change from baseline, Mean (SD) [15]: −39.50 (3.54)
AAS7 Change from baseline, Median [15]: −39.50
AAS7 Percent change from baseline, Mean (SD) [15]: −100.00 (0.00)
AAS7 Percent change from baseline, Median [15]: −100.00
AAS7, Mean (SD) [16]: 0.00 (NC)
AAS7, Median [16]: 0.00
AAS7 Change from baseline, Mean (SD) [16]: −68.00 (NC)
AAS7 Change from baseline, Median [16]: −68.00
AAS7 Percent change from baseline, Mean (SD) [16]: −100.00 (NC)
AAS7 Percent change from baseline, Median [16]: −100.00
AAS7, Mean (SD) [17]: 9.00 (10.15)
AAS7, Median [17]: 7.00
AAS7 Change from baseline, Mean (SD) [17]: −22.28 (21.92)
AAS7 Change from baseline, Median [17]: −33.83
AAS7 Percent change from baseline, Mean (SD) [17]: −55.07 (63.56)
AAS7 Percent change from baseline, Median [17]: −82.86
AAS7, Mean (SD) [18]: 0.00 (0.00)
AAS7, Median [18]: 0.00
AAS7 Change from baseline, Mean (SD) [18]: −39.50 (3.54)
AAS7 Change from baseline, Median [18]: −39.50
AAS7 Percent change from baseline, Mean (SD) [18]: −100.00 (0.00)
AAS7 Percent change from baseline, Median [18]: −100.00
AAS7, Mean (SD) [19]: 0.00 (NC)
AAS7, Median [19]: 0.00
AAS7 Change from baseline, Mean (SD) [19]: −68.00 (NC)
AAS7 Change from baseline, Median [19]: −68.00
AAS7 Percent change from baseline, Mean (SD) [19]: −100.00 (NC)
AAS7 Percent change from baseline, Median [19]: −100.00
AAS7, Median [20]: 0.00
AAS7 Change from baseline, Mean (SD) [20]: −24.61 (24.03)
AAS7 Change from baseline, Median [20]: −36.00
AAS7 Percent change from baseline, Mean (SD) [20]: −60.78 (67.92)
AAS7 Percent change from baseline, Median [20]: −100.00
AAS7, Mean (SD) [21]: 0.00 (0.00)
AAS7, Median [21]: 0.00
AAS7 Change from baseline, Mean (SD) [21]: −39.50 (3.54)
AAS7 Change from baseline, Median [21]: −39.50
AAS7 Percent change from baseline, Mean (SD) [21]: −100.00 (0.00)
AAS7 Percent change from baseline, Median [21]: −100.00
AAS7, Mean (SD) [22]: 5.00 (NC)
AAS7, Median [22]: 5.00
AAS7 Change from baseline, Mean (SD) [22]: −63.00 (NC)
AAS7 Change from baseline, Median [22]: −63.00
AAS7 Percent change from baseline, Mean (SD) [22]: −92.65 (NC)
AAS7 Percent change from baseline, Median [22]: −92.65
AAS7 Change from baseline, Mean (SD) [23]: −16.50 (27.58)
AAS7 Change from baseline, Median [23]: −16.50
AAS7 Percent change from baseline, Mean (SD) [23]: −41.18 (83.19)
AAS7 Percent change from baseline, Median [23]: −41.18
